Test results taken from ChEMBL document CHEMBL6153104, “Discovery of the first potent ROR1 degrader for the treatment of non-small cell lung cancer” (Eur J Med Chem, 2025).

Assays:
Assay type in all cases: cell-based
[1] = target: T1, von Hippel-Lindau disease tumor suppressor/Inactive tyrosine-protein kinase transmembrane receptor ROR1 (Homo sapiens, UniProt P40337+Q01973); test: PROTAC activity at VHL/ROR1 in human NCI-H23 cells assessed as induction of ROR1 degradation at 0.1 uM incubated for 24 hrs by Western blot analysis relative to control
T1 sequence (P40337 whole entry): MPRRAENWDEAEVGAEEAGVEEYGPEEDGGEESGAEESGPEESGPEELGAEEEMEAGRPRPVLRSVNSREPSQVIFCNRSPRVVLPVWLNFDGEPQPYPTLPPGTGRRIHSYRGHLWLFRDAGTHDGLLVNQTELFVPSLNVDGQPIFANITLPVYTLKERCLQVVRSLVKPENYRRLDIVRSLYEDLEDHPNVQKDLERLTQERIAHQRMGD
T1 sequence (Q01973 30-937 partner limits assumed): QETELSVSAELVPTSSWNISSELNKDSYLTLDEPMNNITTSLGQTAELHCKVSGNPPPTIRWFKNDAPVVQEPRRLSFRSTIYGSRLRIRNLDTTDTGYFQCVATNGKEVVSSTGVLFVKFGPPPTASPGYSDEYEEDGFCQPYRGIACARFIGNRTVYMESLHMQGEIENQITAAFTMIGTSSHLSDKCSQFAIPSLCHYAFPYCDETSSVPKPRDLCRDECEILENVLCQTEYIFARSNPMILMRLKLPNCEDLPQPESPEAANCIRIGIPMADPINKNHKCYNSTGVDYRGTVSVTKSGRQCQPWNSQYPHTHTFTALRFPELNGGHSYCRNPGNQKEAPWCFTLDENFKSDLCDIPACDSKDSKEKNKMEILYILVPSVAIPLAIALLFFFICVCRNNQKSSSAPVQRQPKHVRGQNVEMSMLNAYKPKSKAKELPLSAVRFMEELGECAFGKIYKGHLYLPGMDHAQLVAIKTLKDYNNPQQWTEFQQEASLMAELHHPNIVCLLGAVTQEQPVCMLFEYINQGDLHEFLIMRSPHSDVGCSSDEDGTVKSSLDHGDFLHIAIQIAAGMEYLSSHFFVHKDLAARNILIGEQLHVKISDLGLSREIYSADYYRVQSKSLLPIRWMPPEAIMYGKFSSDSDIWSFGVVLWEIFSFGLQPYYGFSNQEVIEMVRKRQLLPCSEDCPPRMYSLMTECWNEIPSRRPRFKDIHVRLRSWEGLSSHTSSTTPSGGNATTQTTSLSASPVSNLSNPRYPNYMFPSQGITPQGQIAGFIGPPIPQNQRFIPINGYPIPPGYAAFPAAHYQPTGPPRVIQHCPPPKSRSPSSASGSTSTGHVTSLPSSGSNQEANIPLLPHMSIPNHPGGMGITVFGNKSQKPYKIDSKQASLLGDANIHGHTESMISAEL

[2] = target: T1, von Hippel-Lindau disease tumor suppressor/Inactive tyrosine-protein kinase transmembrane receptor ROR1; test: PROTAC activity at VHL/ROR1 in human NCI-H23 cells assessed as induction of ROR1 degradation at 1 uM incubated for 24 hrs by Western blot analysis relative to control
[3] = target: T2, Protein cereblon/Inactive tyrosine-protein kinase transmembrane receptor ROR1 (Homo sapiens) (UniProt Q96SW2+Q01973); test: PROTAC activity at CRBN/ROR1 in human NCI-H23 cells assessed as induction of ROR1 degradation at 0.1 uM incubated for 24 hrs by Western blot analysis relative to control
T2 sequence (Q01973 whole entry, looked up): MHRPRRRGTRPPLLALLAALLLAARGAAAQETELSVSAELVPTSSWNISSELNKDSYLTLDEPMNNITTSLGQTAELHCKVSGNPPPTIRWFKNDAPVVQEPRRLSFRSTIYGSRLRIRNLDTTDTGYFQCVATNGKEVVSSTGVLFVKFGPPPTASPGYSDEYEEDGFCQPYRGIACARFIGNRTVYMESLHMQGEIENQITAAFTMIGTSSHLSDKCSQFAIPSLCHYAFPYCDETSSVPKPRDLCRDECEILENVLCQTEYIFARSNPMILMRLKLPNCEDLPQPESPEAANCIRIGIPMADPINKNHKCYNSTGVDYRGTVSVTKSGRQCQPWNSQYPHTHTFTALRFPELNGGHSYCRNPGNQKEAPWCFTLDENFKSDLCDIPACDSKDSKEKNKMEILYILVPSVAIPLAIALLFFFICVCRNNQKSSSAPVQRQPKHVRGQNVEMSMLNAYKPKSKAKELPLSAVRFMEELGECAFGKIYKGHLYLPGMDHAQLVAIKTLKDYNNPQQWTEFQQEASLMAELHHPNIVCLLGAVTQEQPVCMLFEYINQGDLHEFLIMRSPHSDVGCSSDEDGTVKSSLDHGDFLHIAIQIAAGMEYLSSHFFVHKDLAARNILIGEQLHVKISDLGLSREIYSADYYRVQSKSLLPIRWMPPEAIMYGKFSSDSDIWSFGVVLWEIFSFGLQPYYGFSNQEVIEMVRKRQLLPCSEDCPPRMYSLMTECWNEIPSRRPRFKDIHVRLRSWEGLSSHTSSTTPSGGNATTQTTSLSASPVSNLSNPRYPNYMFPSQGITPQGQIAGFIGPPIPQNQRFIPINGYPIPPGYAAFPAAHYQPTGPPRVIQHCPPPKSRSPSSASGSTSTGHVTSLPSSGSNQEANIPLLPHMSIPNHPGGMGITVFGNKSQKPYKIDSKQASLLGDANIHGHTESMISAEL
T2 sequence (Q96SW2 whole entry, looked up): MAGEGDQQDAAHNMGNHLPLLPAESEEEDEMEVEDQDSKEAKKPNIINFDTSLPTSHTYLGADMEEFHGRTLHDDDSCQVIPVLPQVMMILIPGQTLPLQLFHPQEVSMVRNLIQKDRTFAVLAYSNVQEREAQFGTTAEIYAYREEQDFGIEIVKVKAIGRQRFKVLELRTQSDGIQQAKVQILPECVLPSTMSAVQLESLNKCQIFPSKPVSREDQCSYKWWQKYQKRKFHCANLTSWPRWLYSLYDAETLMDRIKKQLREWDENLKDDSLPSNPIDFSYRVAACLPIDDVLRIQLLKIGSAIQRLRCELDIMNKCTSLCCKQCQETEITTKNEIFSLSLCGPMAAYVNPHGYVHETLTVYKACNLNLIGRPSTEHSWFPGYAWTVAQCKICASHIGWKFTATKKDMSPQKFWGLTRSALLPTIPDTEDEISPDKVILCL

[4] = target: T2, Protein cereblon/Inactive tyrosine-protein kinase transmembrane receptor ROR1 (Homo sapiens); test: PROTAC activity at CRBN/ROR1 in human NCI-H23 cells assessed as induction of ROR1 degradation at 1 uM incubated for 24 hrs by Western blot analysis relative to control

## CCN1CCC(Nc2c(Br)cnc3[nH]c(-c4ccc(N5CCN(C(=O)CCCCCCC(=O)N[C@H](C(=O)N6C[C@H](O)C[C@H]6C(=O)NCc6ccc(-c7scnc7C)cc6)C(C)(C)C)CC5)cc4)nc23)CC1
[1]
  Activity: 36.5%
[2]
  Activity: 84.1%

## CCN1CCC(Nc2c(Br)cnc3[nH]c(-c4ccc(N5CCN(C(=O)CCCCCCCCCOc6ccc7c(c6)C(=O)N(C6CCC(=O)NC6=O)C7=O)CC5)cc4)nc23)CC1 (stereo not given)
[3]
  Activity: 0%
[4]
  Activity: 60.5%

## CCN1CCC(Nc2c(Br)cnc3[nH]c(-c4ccc(N5CCN(C(=O)CCCCCCCOc6ccc7c(c6)C(=O)N(C6CCC(=O)NC6=O)C7=O)CC5)cc4)nc23)CC1 (stereo not given)
[3]
  Activity: 0%
[4]
  Activity: 0%

## CCN1CCC(Nc2c(Br)cnc3[nH]c(-c4ccc(N5CCN(CCCNc6cccc7c6C(=O)N(C6CCC(=O)NC6=O)C7=O)CC5)cc4)nc23)CC1 (stereo not given)
[3]
  Activity: 76.1%
[4]
  Activity: 99.7%

## CCN1CCC(Nc2c(Br)cnc3[nH]c(-c4ccc(N5CCN(C(=O)CCCCCCCCCNc6ccc7c(c6)C(=O)N(C6CCC(=O)NC6=O)C7=O)CC5)cc4)nc23)CC1 (stereo not given)
[3]
  Activity: 1.6%
[4]
  Activity: 0%

## CCN1CCC(Nc2c(Br)cnc3[nH]c(-c4ccc(N5CCN(C(=O)CCCOc6cccc7c6C(=O)N(C6CCC(=O)NC6=O)C7=O)CC5)cc4)nc23)CC1 (stereo not given)
[3]
  Activity: 0%
[4]
  Activity: 50.6%

## CCN1CCC(Nc2c(Br)cnc3[nH]c(-c4ccc(N5CCN(CCNc6ccc7c(c6)C(=O)N(C6CCC(=O)NC6=O)C7=O)CC5)cc4)nc23)CC1 (stereo not given)
[3]
  Activity: 3.2%
[4]
  Activity: 92.7%

## CCN1CCC(Nc2c(Br)cnc3[nH]c(-c4ccc(N5CCN(C(=O)CNc6cccc7c6C(=O)N(C6CCC(=O)NC6=O)C7=O)CC5)cc4)nc23)CC1 (stereo not given)
[3]
  Activity: 0%
[4]
  Activity: 83.3%

## CCN1CCC(Nc2c(Br)cnc3[nH]c(-c4ccc(N5CCN(CCNc6cccc7c6C(=O)N(C6CCC(=O)NC6=O)C7=O)CC5)cc4)nc23)CC1 (stereo not given)
[3]
  Activity: 69.7%
[4]
  Activity: 99.3%

## CCN1CCC(Nc2c(Br)cnc3[nH]c(-c4ccc(N5CCN(CCOCCOCCOCCNc6cccc7c6C(=O)N(C6CCC(=O)NC6=O)C7=O)CC5)cc4)nc23)CC1 (stereo not given)
[3]
  Activity: 30.4%
[4]
  Activity: 93.8%

## CCN1CCC(Nc2c(Br)cnc3[nH]c(-c4ccc(N5CCN(CCCC(=O)N[C@H](C(=O)N6C[C@H](O)C[C@H]6C(=O)NCc6ccc(-c7scnc7C)cc6)C(C)(C)C)CC5)cc4)nc23)CC1
[1]
  Activity: 22.6%
[2]
  Activity: 23.6%

## CCN1CCC(Nc2c(Br)cnc3[nH]c(-c4ccc(N5CCN(CCCCCCNc6cccc7c6C(=O)N(C6CCC(=O)NC6=O)C7=O)CC5)cc4)nc23)CC1 (stereo not given)
[3]
  Activity: 6.1%
[4]
  Activity: 96.5%

## CCN1CCC(Nc2c(Br)cnc3[nH]c(-c4ccc(N5CCN(C(=O)CCCCCCCCCOc6cccc7c6C(=O)N(C6CCC(=O)NC6=O)C7=O)CC5)cc4)nc23)CC1 (stereo not given)
[3]
  Activity: 38.7%
[4]
  Activity: 99.6%

## CCN1CCC(Nc2c(Br)cnc3[nH]c(-c4ccc(N5CCN(CCCCCCCCCC(=O)N[C@H](C(=O)N6C[C@H](O)C[C@H]6C(=O)NCc6ccc(-c7scnc7C)cc6)C(C)(C)C)CC5)cc4)nc23)CC1
[1]
  Activity: 28.1%
[2]
  Activity: 88.4%

## CCN1CCC(Nc2c(Br)cnc3[nH]c(-c4ccc(N5CCN(CC(=O)N[C@H](C(=O)N6C[C@H](O)C[C@H]6C(=O)NCc6ccc(-c7scnc7C)cc6)C(C)(C)C)CC5)cc4)nc23)CC1
[1]
  Activity: 10.2%
[2]
  Activity: 46.2%

## CCN1CCC(Nc2c(Br)cnc3[nH]c(-c4ccc(N5CCN(C(=O)CCCCCOc6ccc7c(c6)C(=O)N(C6CCC(=O)NC6=O)C7=O)CC5)cc4)nc23)CC1 (stereo not given)
[3]
  Activity: 0%
[4]
  Activity: 0%

## CCN1CCC(Nc2c(Br)cnc3[nH]c(-c4ccc(N5CCN(CCCCCCCC(=O)N[C@H](C(=O)N6C[C@H](O)C[C@H]6C(=O)NCc6ccc(-c7scnc7C)cc6)C(C)(C)C)CC5)cc4)nc23)CC1
[1]
  Activity: 52.5%
[2]
  Activity: 99.6%

## CCN1CCC(Nc2c(Br)cnc3[nH]c(-c4ccc(N5CCN(CCOCCOCCNc6ccc7c(c6)C(=O)N(C6CCC(=O)NC6=O)C7=O)CC5)cc4)nc23)CC1 (stereo not given)
[3]
  Activity: 0%
[4]
  Activity: 88.7%

## CCN1CCC(Nc2c(Br)cnc3[nH]c(-c4ccc(N5CCN(C(=O)COc6ccc7c(c6)C(=O)N(C6CCC(=O)NC6=O)C7=O)CC5)cc4)nc23)CC1 (stereo not given)
[3]
  Activity: 0%
[4]
  Activity: 0%

## CCN1CCC(Nc2c(Br)cnc3[nH]c(-c4ccc(N5CCN(C(=O)CCCOc6ccc7c(c6)C(=O)N(C6CCC(=O)NC6=O)C7=O)CC5)cc4)nc23)CC1 (stereo not given)
[3]
  Activity: 0%
[4]
  Activity: 87.3%

## CCN1CCC(Nc2c(Br)cnc3[nH]c(-c4ccc(N5CCN(CCCNc6ccc7c(c6)C(=O)N(C6CCC(=O)NC6=O)C7=O)CC5)cc4)nc23)CC1 (stereo not given)
[3]
  Activity: 23.2%
[4]
  Activity: 97.4%

## CCN1CCC(Nc2c(Br)cnc3[nH]c(-c4ccc(N5CCN(C(=O)CCCCCCCNc6ccc7c(c6)C(=O)N(C6CCC(=O)NC6=O)C7=O)CC5)cc4)nc23)CC1 (stereo not given)
[3]
  Activity: 30.5%
[4]
  Activity: 73.3%

## CCN1CCC(Nc2c(Br)cnc3[nH]c(-c4ccc(N5CCN(C(=O)CCCCCNc6ccc7c(c6)C(=O)N(C6CCC(=O)NC6=O)C7=O)CC5)cc4)nc23)CC1 (stereo not given)
[3]
  Activity: 35.5%
[4]
  Activity: 87.2%

## CCN1CCC(Nc2c(Br)cnc3[nH]c(-c4ccc(N5CCN(C(=O)CCCCCNc6cccc7c6C(=O)N(C6CCC(=O)NC6=O)C7=O)CC5)cc4)nc23)CC1 (stereo not given)
[3]
  Activity: 6.2%
[4]
  Activity: 75.8%

## CCN1CCC(Nc2c(Br)cnc3[nH]c(-c4ccc(N5CCN(CCCCCCNc6ccc7c(c6)C(=O)N(C6CCC(=O)NC6=O)C7=O)CC5)cc4)nc23)CC1 (stereo not given)
[3]
  Activity: 37.6%
[4]
  Activity: 89.9%

## CCN1CCC(Nc2c(Br)cnc3[nH]c(-c4ccc(N5CCN(C(=O)CNc6ccc7c(c6)C(=O)N(C6CCC(=O)NC6=O)C7=O)CC5)cc4)nc23)CC1 (stereo not given)
[3]
  Activity: 0.8%
[4]
  Activity: 71%

## CCN1CCC(Nc2c(Br)cnc3[nH]c(-c4ccc(N5CCN(C(=O)CCCCCCCNc6cccc7c6C(=O)N(C6CCC(=O)NC6=O)C7=O)CC5)cc4)nc23)CC1 (stereo not given)
[3]
  Activity: 1.2%
[4]
  Activity: 75.3%

## CCN1CCC(Nc2c(Br)cnc3[nH]c(-c4ccc(N5CCN(CCOCCOCCOCCNc6ccc7c(c6)C(=O)N(C6CCC(=O)NC6=O)C7=O)CC5)cc4)nc23)CC1 (stereo not given)
[3]
  Activity: 0%
[4]
  Activity: 73.5%

## CCN1CCC(Nc2c(Br)cnc3[nH]c(-c4ccc(N5CCN(C(=O)CCCCCOc6cccc7c6C(=O)N(C6CCC(=O)NC6=O)C7=O)CC5)cc4)nc23)CC1 (stereo not given)
[3]
  Activity: 0%
[4]
  Activity: 0%

## CCN1CCC(Nc2c(Br)cnc3[nH]c(-c4ccc(N5CCN(C(=O)CCCNc6cccc7c6C(=O)N(C6CCC(=O)NC6=O)C7=O)CC5)cc4)nc23)CC1 (stereo not given)
[3]
  Activity: 6.6%
[4]
  Activity: 76%

## CCN1CCC(Nc2c(Br)cnc3[nH]c(-c4ccc(N5CCN(C(=O)COc6cccc7c6C(=O)N(C6CCC(=O)NC6=O)C7=O)CC5)cc4)nc23)CC1 (stereo not given)
[3]
  Activity: 38%
[4]
  Activity: 88.9%

## CCN1CCC(Nc2c(Br)cnc3[nH]c(-c4ccc(N5CCN(CCOCCOCCNc6cccc7c6C(=O)N(C6CCC(=O)NC6=O)C7=O)CC5)cc4)nc23)CC1 (stereo not given)
[3]
  Activity: 11.1%
[4]
  Activity: 89.6%

## CCN1CCC(Nc2c(Br)cnc3[nH]c(-c4ccc(N5CCN(C(=O)CCCCCCCCCNc6cccc7c6C(=O)N(C6CCC(=O)NC6=O)C7=O)CC5)cc4)nc23)CC1 (stereo not given)
[3]
  Activity: 6.7%
[4]
  Activity: 57.5%

## CCN1CCC(Nc2c(Br)cnc3[nH]c(-c4ccc(N5CCN(C(=O)CCCCCCCOc6cccc7c6C(=O)N(C6CCC(=O)NC6=O)C7=O)CC5)cc4)nc23)CC1 (stereo not given)
[3]
  Activity: 9.5%
[4]
  Activity: 0%

## CCN1CCC(Nc2c(Br)cnc3[nH]c(-c4ccc(N5CCN(C(=O)CCCNc6ccc7c(c6)C(=O)N(C6CCC(=O)NC6=O)C7=O)CC5)cc4)nc23)CC1 (stereo not given)
[3]
  Activity: 11%
[4]
  Activity: 46.8%
